Consider 56 molecules from US8921388B2, “Dihydroxypyrimidine carbonic acid derivatives and their use in the treatment, amelioration or prevention of a viral disease” (priority 2012, dated 2014).

One test has as its target T1, influenza A virus (IAV) PA-Nter fragment (amino acids 1-209) harbouring the influenza endonuclease activity (Influenza A virus, UniProt P31343).
T1 construct: PA-Nter fragment (amino acids 1-209); made in house
The test can be described thus: FRET endonuclease activity assay. As to conditions: @ 10 μM; compound-treated compared to untreated. The format is biochemical.
`O=C(NCc1ccc(Cl)cc1)c1nc(Cc2ccccc2Br)nc(O)c1O`: the “FRET % reduction of v0” value turned out to be 37% @ 10 μM.
Turning to `COC(=O)c1nc(CC2CCCCC2)n(C)c(=O)c1O`, the “FRET % reduction of v0” value is on record as 25% @ 10 μM.
On the same count and under the same terms, the figure for `COC(=O)c1c(O)c(=O)nc(Cc2ccccc2Br)n1Cc1ccccc1` is 23% @ 10 μM.

Still in this test, the particulars now being: calculated from initial reaction velocities (v0); 0.5 μM PA-Nter, 1.6 μM RNA substrate.
Regarding `COC(=O)c1nc(CC2(c3ccccc3)CCCC2)nc(O)c1O`, the IC50 was 410 nM.
For the molecule `NC(=O)c1nc(CC2(c3ccccc3)CCCC2)nc(O)c1O`, the concentration for half-maximal inhibition (IC50) was 240 nM.
`O=C(NCc1ccccc1)c1nc(CC2(c3ccccc3)CCCC2)nc(O)c1O`: the IC50 is 1100 nM.
As for `O=C(O)c1nc(Cc2ccccc2-c2ccccc2)nc(O)c1O`, the IC50 is 40 nM.
For the molecule `O=C(NCc1ccccc1)c1nc(Cc2ccccc2-c2ccccc2)nc(O)c1O`, the IC50 was 16000 nM.
On to `O=C(O)c1nc(CC2(c3ccccc3)CCCC2)nc(O)c1O`, for which the IC50 was 80 nM.
The same measure, in the same setting: the figure for `CNC(=O)c1nc(CC2(c3ccccc3)CCCC2)nc(O)c1O` is 140 nM; for `CNC(=O)c1nc(Cc2ccccc2-c2ccccc2)nc(O)c1O` it is 660 nM; for `CC(C)NC(=O)c1nc(Cc2ccccc2-c2ccccc2)nc(O)c1O` it is 8200 nM.
As to `O=C(NCc1ccc(F)cc1)c1nc(Cc2ccccc2-c2ccccc2)nc(O)c1O`, the IC50 was 1700 nM.
With `O=C(NCCc1ccccc1)c1nc(Cc2ccccc2-c2ccccc2)nc(O)c1O`, the IC50 was 3800 nM.
With `O=C(c1nc(Cc2ccccc2-c2ccccc2)nc(O)c1O)N1CCCC1`, the half-inhibitory concentration (IC50) is 1100 nM.
The same measure, in the same setting: the figure for `O=C(O)c1nc(CC(c2ccccc2)c2ccccc2)nc(O)c1O` is 2500 nM; for `O=C(O)c1nc(Cc2ccc(F)cc2Br)nc(O)c1O` it is 180 nM.
Same read-out and setting: then `COC(=O)c1nc(Cc2ccccc2-c2ccccc2C)nc(O)c1O`, with 120 nM; and `CCCNC(=O)c1nc(Cc2ccccc2-c2ccccc2)nc(O)c1O`, with 8800 nM.
With `CCOC(=O)c1nc(Cc2cncn2Cc2ccccc2)nc(O)c1O`, the IC50 was 9500 nM.
For `COC(=O)c1nc(Cc2ccc(F)cc2Br)nc(O)c1O`, the concentration for half-maximal inhibition (IC50) was 1500 nM.
For `NC(=O)c1nc(Cc2ccc(F)cc2Br)nc(O)c1O`, the concentration for half-maximal inhibition (IC50) was 2700 nM.
Still for that read-out and setting: the figure for `COC(=O)c1nc(Cc2ccccc2-c2cccc(C)c2)nc(O)c1O` is 350 nM.
In the case of `Cc1cccc(-c2ccccc2Cc2nc(C(N)=O)c(O)c(=O)[nH]2)c1`, the IC50 is 550 nM.
The same measure, in the same setting: then `CCOC(=O)c1nc(Cc2ccccc2-c2cc(C)ccc2C)nc(O)c1O`, with 220 nM; and `CCOC(=O)c1nc(CC2CCCCC2)nc(O)c1O`, with 3200 nM.
Regarding `COC(=O)c1nc(Cc2ccccc2Br)nc(O)c1OC(C)=O`, the IC50 was 7900 nM.
For `CNC(=O)c1nc(Cc2ccccc2Br)nc(O)c1O`, the IC50 was 5700 nM.
Consider `Cc1cccc(-c2ccccc2Cc2nc(O)c(O)c(C(=O)O)n2)c1`, for which the concentration for half-maximal inhibition (IC50) is 230 nM.
As for `Cc1ccc(C)c(-c2ccccc2Cc2nc(O)c(O)c(C(=O)O)n2)c1`, the IC50 is 30 nM.
As to `CNC(=O)c1nc(CC2CCCCC2)nc(O)c1O`, the IC50 was 6500 nM.
With `CNC(=O)c1nc(Cc2ccccc2-c2cc(C)ccc2C)nc(O)c1O`, the IC50 is 530 nM.
Consider `CC(C)NC(=O)c1nc(Cc2cccc(Br)c2)nc(O)c1O`, for which the IC50 is 23000 nM.
In the case of `O=C(O)c1nc(CC2CCCCC2)nc(O)c1O`, the IC50 is 210 nM.
As to `COC(=O)c1nc(Cc2ccccc2-c2cc(C)ccc2C)nc(O)c1O`, the IC50 was 150 nM.
`O=C(O)c1nc(Cc2ccccc2Br)nc(O)c1O`: the IC50 is 250 nM.
Turning to `Cc1ccccc1Cc1nc(O)c(O)c(C(=O)O)n1`, the half-inhibitory concentration (IC50) is 270 nM.
Still for that read-out and setting: then `O=C(NCc1ccc(F)cc1)c1nc(Cc2ccccc2Br)nc(O)c1O`, with 27000 nM; and `Cc1ccc(C)c(-c2ccccc2Cc2nc(O)c(O)c(C(=O)OC(C)(C)C)n2)c1`, with 1100 nM; and `O=C(NCc1ccc(Cl)cc1)c1nc(Cc2ccccc2-c2ccccc2)nc(O)c1O`, with 1800 nM.
As for `Cc1ccccc1-c1ccccc1Cc1nc(O)c(O)c(C(=O)O)n1`, the IC50 was 240 nM.
`O=C(O)c1nc(Cc2cc(C(F)(F)F)ccc2Br)nc(O)c1O`: the half-maximal inhibitory concentration (IC50) was 160 nM.
Take `CNC(=O)c1nc(Cc2ccccc2-c2ccccc2)n(C)c(=O)c1O`: the IC50 is 23000 nM.
Take `Cn1c(CC2(c3ccccc3)CCCC2)nc(C(=O)O)c(O)c1=O`: the half-inhibitory concentration (IC50) is 260 nM.
In the case of `Cn1c(Cc2ccccc2-c2ccccc2)nc(C(=O)O)c(O)c1=O`, the IC50 is 1300 nM.
Consider `Cn1c(Cc2ccccc2-c2ccccc2)nc(C(N)=O)c(O)c1=O`, for which the half-inhibitory concentration (IC50) was 1300 nM.
For `CC(C)NC(=O)c1nc(Cc2ccccc2-c2ccccc2)n(C)c(=O)c1O`, the concentration for half-maximal inhibition (IC50) was 14000 nM.
As for `CNC(=O)c1nc(CC2(c3ccccc3)CCCC2)n(C)c(=O)c1O`, the IC50 is 410 nM.
On to `CNC(=O)c1nc(NS(=O)(=O)Cc2cccc(C)c2)n(C)c(=O)c1O`, for which the 50% inhibitory concentration (IC50) is 6800 nM.
For the molecule `CNC(=O)c1nc(NS(=O)(=O)Cc2ccc(C)cc2)n(C)c(=O)c1O`, the 50% inhibitory concentration (IC50) is 13000 nM.
Take `Cn1c(NS(=O)(=O)Cc2ccc(Cl)cc2)nc(C(=O)O)c(O)c1=O`: the IC50 is 540 nM.
On to `O=C(O)c1c(O)c(=O)nc(Cc2ccccc2)n1Cc1ccccc1`, for which the IC50 was 3800 nM.
Take `O=C(O)c1c(O)c(=O)nc(Cc2ccccc2Br)n1Cc1ccccc1`: the IC50 was 5700 nM.
Take `CNC(=O)c1nc(NS(=O)(=O)Cc2ccccc2)n(C)c(=O)c1O`: the IC50 is 3000 nM.
Same read-out and setting: the figure for `CNC(=O)c1nc(NS(=O)(=O)Cc2ccc(Cl)cc2)n(C)c(=O)c1O` is 5800 nM; for `COC(=O)c1c(O)c(=O)nc(Cc2ccccc2)n1Cc1ccccc1` it is 19000 nM.
